Measured values as given in patent US11246873B2, “Directed differentiation of oligodendrocyte precursor cells to a myelinating cell fate” (The Scripps Research Institute, priority 2011, dated 2022).
Entries after “also recorded” stand apart in the source; their conditions may differ.

Key:
[1] = tested on: rat optic nerve derived OPCs; experiment: High content imaging assay of OPC differentiation (MBP immunostaining, OPERA); type: cell-based; details: OPCs in differentiation medium (2 ng/ml PDGF), 6 days
Method: FIG. 1A-C. […] The calculated EC50 values were determined using appropriate Graphpad Prism 5.0 curve fitting software. […] OPCs were plated in 384 well plates at 1000 cells per well in OPC media containing basal PDGF-αα (2 ng/mL) and treated with serial dilutions of compounds. Following six days of compound treatment, cells were fixed and subjected to immunofluorescence analysis using anti-myelin basic protein (MBP) antibody. Image acquisition and quantification of MBP staining was performed using the OPERA imaging system.
FIG. 11A-B. Screen to identify inducers of OPC differentiation. (A) OPCs were maintained as proliferating A2B5-positive cells under basal growth conditions (Neurobasal medium, B27 supplement without Vitamin A, non-essential amino acids, L-Glutamine, 30 ng/ml PDGF). OPCs were plated in basal differentiation media (Neurobasal medium, B27 supplement without Vitamin A, non-essential amino acids, L-Glutamine, 2 ng/ml PDGF), treated with DMSO (<0.1%) or thyroid hormone (1 uM), fixed after 6 days in culture, and stained using antibodies for CNP, O4, or MBP. […] (B) Screen strategy using A2B5 positive OPCs cultured under basal differentiation conditions and treated with compounds for 6 days to identify small molecules that induce the differentiation of OPCs to mature, MBP expressing oligodendrocytes.
FIG. 12A-B. Primary hit confirmation. (A) Dose response assay used to confirm primary screening hits and determine potency (EC50). (EC50) is defined as the concentration that results in a half maximal increase in the percentage of total cells that express MBP as detected by immunostaining. […] Cells were fixed and immunostained using antibodies for MBP. Error bars represent standard deviations from 3 replicate experiments. […]
FIG. 21. […] OPCs were plated in differentiation medium (2 ng/ml PDGF) and treated with various concentrations of compounds for 6 days. Cells were fixed and immunostained for MBP.
A large-scale small molecule screen was conducted to identify small molecules that promote the differentiation of oligodendrocyte precursor cells (OPCs) to a mature myelinating fate. High content imaging was used to detect in-well differentiation of rat optic nerve derived OPCs. Rat optic nerve derived OPCs were expanded en masse in OPC media containing 30 ng/mL PDGFαα. To screen for small molecule inducers of OPC differentiation, OPCs (cultured for fewer than 15 passages) were plated in poly-D-lysine coated 384 well culture plates in OPC Media containing 2 ng/mL PDGFαα and immediately treated with compounds at a final concentration of 6 μM (0.6% DMSO). Compound treated cells were incubated at 37° C., 5% CO2 for 6 days. At the end of 6 days, cells were fixed in 4% paraformaldehyde and subjected to immunofluorescence analysis. Anti-Myelin Basic Protein monoclonal antibody (a.a. 129-138, clone 1 monoclonal antibody, Millipore) (1:1000 dilution) in blocking buffere solution (3% BSA, 0.3% Triton X-100 in PBS) was added to fixed and washed cells and incubated at 4° C. overnight.

PLP induced EAE mice = tested on: PLP induced EAE mice
Method: (A-E) SJL mice were immunized with proteolipid peptide (PLP) and pertussis toxin and monitored daily with scoring on the standard clinical EAE scale (0-5). Compounds were administered daily for the duration of the study in saline at 10 mg/kg via intra-peritoneal injection (0.1 ml), starting on the day of the appearance of clinical EAE symptoms (day 10). […] Mean clinical EAE score and standard error of mean (SEM) are shown for each study group.
FIG. 25. […] EAE was induced in mice using PLP and pertussis toxin. […] Prophylactic dosing is defined as administration of compound commenced on the day of PLP injection. Error bars indicate standard deviation of the mean within each group of 8 mice.
(A-F) EAE was induced in mice using PLP and pertussis toxin. […] Error bars indicate standard deviation of the mean within each group of 8 mice.
(A-F) EAE was induced in mice by injecting PLP in complete Freund's adjuvant (CFA) and pertussis toxin, and the animals were scored daily for clinical severity of disease on a scale of 0-5. […] Error bars indicate standard deviation of the mean within each group of 8-10 mice.
10 week old SJL mice were immunized with PLP emulsion and pertusis toxin to induce EAE. […] Compounds were administered daily via intraperitoneal injection of 100 ul in sterile saline at 10 mg/kg alone or in combination with mycophenolate motefil in sterile saline at pH 5 at 20 mg/kg. Compound administration was initiated at disease onset (day 10) while mycophenolate motefil administration was initiated on Day 14. The mice were scored daily on a standard EAE scale of 0-5.
This model is most commonly used to evaluate the potential efficacy of immunomodulatory agents, but can also be used to determine the effectiveness of promyelinating agents that function by enhancing OPC differentiation (M. Fernandez et al., Proc Natl Acad Sci U.S.A, 101, 16363 (2004); X. Lee et al., J Neurosci, 27, 220 (2007); reviewed in R. J. Franklin, C. Ffrench-Constant, Nat Rev Neurosci, 9, 839 (2008)). […] We next evaluated efficacy when the drug is dosed therapeutically, by starting daily injections at the first sign of disease onset.
For the treatment of MS, an OPC differentiation inducing drug would most likely be introduced clinically as part of a combination therapy with an immunosuppressive drug. […] The former reduces T-cell proliferation and alters cytokine expression (A. Noronha, A. Toscas, M. A. Jensen, J Neuroimmunol, 46, 145 (1993); A. Noronha, A. Toscas, M. A. Jensen, Ann Neurol, 27, 207 (1990)), while the latter is an S1P agonist that regulates T-cell trafficking (V. Brinkmann et al., J Biol Chem, 277, 21453 (2002); V. Brinkmann et al., Nat Rev Drug Discov, 9, 883 (2010)).

OPCs [2] = experiment: Immunofluorescence analysis of mature oligodendrocyte markers (MBP, MOG, CNP, GalC, O1, O4); type: cell-based, rat; details: OPCs treated 6 days
Source text: FIG. 3. Immunofluorescence analysis of compound treated OPCs using mature oligodendrocyte specific markers. Immunofluorescence staining using specific antibodies for MBP, MOG, and 2′,3′-cyclic nucleotide 3′ phosphodiesterase (CNP). Nuclei were identified using DAPI.
FIG. 4. Immunofluorescence analysis of compound treated OPCs using mature oligodendrocyte specific markers. Immunofluorescence staining using specific antibodies for galactocereberoside (GalC), oligodendrocyte marker O1 (O1) and oligodendrocyte marker O4 (O4). Nuclei were identified using DAPI.
FIG. 14. Compound treatment induces the differentiation of OPCs to mature oligodendrocytes. […] Cells were fixed and immunostained for MBP, MOG, CNP, GalC, O1, or O4.
Immunofluorescence was also used to confirm that the hits were able to induce oligodendrocyte maturation.

OPCs [3] = experiment: qRT-PCR of MBP and MOG expression in compound treated OPCs; type: cell-based, rat; details: EC90 concentrations, 6 days
Source text: FIG. 2A-C. […] (A) Western blot analysis of OPCs treated with compounds at EC90 concentrations for 6 days. Total protein was isolated from cell pellets and probed for myelin basic protein (MBP) and myelin oligodendrocyte glycoprotein (MOG) using specific antibodies. (B-C) Quantitative RT-PCR (qRT-PCR) analysis of OPCs treated with compounds at EC90 concentrations for 6 days. Total RNA was isolated from cell pellets and reverse transcribed. MBP and MOG expression was quantified using specific probes and Taqman-based qRT-PCR. Expression was normalized to the internal controls β-actin and GAPDH. Fold change in gene expression over DMSO treated control cells is plotted for MBP (B) and MOG (C).

OPCs [4] = experiment: Western blot of MBP and MOG in compound treated OPCs; type: cell-based, rat; details: OPCs treated 6 days
Source text: FIG. 2A-C. Neurotransmitter receptor modulating agents induce the differentiation of OPCs to a myelinating oligodendrocyte cell fate. (A) Western blot analysis of OPCs treated with compounds at EC90 concentrations for 6 days. Total protein was isolated from cell pellets and probed for myelin basic protein (MBP) and myelin oligodendrocyte glycoprotein (MOG) using specific antibodies. (B-C) Quantitative RT-PCR (qRT-PCR) analysis of OPCs treated with compounds at EC90 concentrations for 6 days. Total RNA was isolated from cell pellets and reverse transcribed. MBP and MOG expression was quantified using specific probes and Taqman-based qRT-PCR. Expression was normalized to the internal controls β-actin and GAPDH. Fold change in gene expression over DMSO treated control cells is plotted for MBP (B) and MOG (C).
FIG. 13. […] After 6 days in culture, cells were analyzed for MBP and MOG expression by Western blot.

muscarinic receptor = experiment: Carbachol co-treatment in compound induced OPC differentiation (MBP staining); type: cell-based, rat; details: compounds at EC90 (benztropine 2.3 uM), serial dilutions of carbachol, 6 days
Method: Following 6 days of treatment, cells were fixed and stained for MBP. Plates were imaged using the OPERA high content screening system and MBP staining was quantified as described. […] OPCs were plated in 384-well plates at 5000 cells per well in media containing basal PDGF-αα. Cells were equilibrated with Ca^2+ sensitive Fluo-3AM® dye in HBSS for 30 min. […] Ca^2+ influx was immediately measured using the FLIPR TETRA® system.
OPCs express mAChRs, predominantly subtypes M1, M3, and M5 (F. Ragheb et al., J Neurochem, 77, 1396 (2001)). […] Activation of M1 and M3 mAChRs is coupled to downstream signal transduction events through phospholipase C, which results in increased intracellular calcium concentrations (F. Ragheb et al., J Neurochem, 77, 1396 (2001)) (FIG. 23C). M2 and M4 mAChR activation inhibits adenylatecyclase, leading to decreased intracellular cAMP levels (C. C. Felder, FASEB J, 9, 619 (1995); M. Lopez-Ilasaca et al., Science, 275, 394 (1997)). […] Acetylcholine is a known regulator of OPC proliferation and, as such, muscarinic receptor subtypes represent a reasonable class of therapeutic targets for the modulation of OPC proliferation and differentiation (F. De Angelis et al., Dev Neurobiol, (2011)).

## CCCOC(C(=O)OC1CCN(C)CC1)(c1ccccc1)c1ccccc1 [propiverine]
[1]
  induction of OPC differentiation (MBP staining): induced OPC differentiation in a dose dependent manner; also recorded: induced differentiation of OPCs in a dose dependent manner

## CC(C)(C)NCC(O)c1ccc(O)c(CO)c1 (stereo not shown) [salbutamol]
PLP induced EAE mice; compounds 10 mg/kg i.p. daily from first EAE symptoms, mycophenolate 20 mg/kg from day 14
  clinical severity versus vehicle, dosing after disease onset (therapeutic mode): significantly decreased clinical severity in the relapse phase

## CCCCCCCCc1ccc(CCC(N)(CO)CO)cc1 [FTY720, fingolimod]
PLP induced EAE mice; EAE mice
  maximal observed tolerated dose: ~1 mg/kg

## CN1[C@@H]2CC[C@H]1C[C@@H](OC(=O)C(CO)c1ccccc1)C2 (stereo partly shown) [atropine]
[1]
  induction of OPC differentiation (MBP staining): induce OPC differentiation; also recorded: induced OPC differentiation in a dose dependent manner; also recorded: induced differentiation of OPCs in a dose dependent manner

## N[C@@H](Cc1cc(I)c(Oc2ccc(O)c(I)c2)c(I)c1)C(=O)O [thyroid hormone, triiodothryonine]
[1]
  induction of OPC differentiation (MBP staining): induces the differentiation of OPCs into mature oligodendrocytes that express MBP
[1]; listed as T3
  induction of OPC differentiation (MBP staining): results in the differentiation of OPCs to MBP positive oligodendrocytes
OPCs [2]
  markers of mature myelinating oligodendrocytes (MBP, MOG, CNP, GalC, O1, O4) by immunofluorescence: expression of mature oligodendrocyte markers

## CN1CCC[C@@H]1CCO[C@](C)(c1ccccc1)c1ccc(Cl)cc1 [clemastine]
OPCs [3]
  induction of MBP expression (qRT-PCR) over DMSO: two-fold
  induction of MOG expression (qRT-PCR) over DMSO: two-fold
[1]
  induction of OPC differentiation (MBP staining): promote OPC differentiation
OPCs [4]
  MBP and MOG expression (Western blot): positive
Muscarinic receptor
  effect of carbachol on compound induced OPC differentiation: inhibited; also recorded: dose dependent inhibition
OPCs [2]
  markers of mature myelinating oligodendrocytes (MBP, MOG, CNP, GalC, O1, O4) by immunofluorescence: confirmed the presence of multiple markers of mature myelinating oligodendrocytes

## CN1[C@@H]2C[C@@H](OC(=O)[C@H](CO)c3ccccc3)C[C@H]1[C@@H]1O[C@@H]12 [scopolamine]
[1]
  induction of OPC differentiation (MBP staining): induced OPC differentiation in a dose dependent manner; also recorded: induced differentiation of OPCs in a dose dependent manner

## CC(C)[N+]1(C)[C@@H]2CC[C@H]1C[C@@H](OC(=O)C(CO)c1ccccc1)C2 (stereo partly shown) [ipratropium]
[1]
  induction of OPC differentiation (MBP staining): induce OPC differentiation; also recorded: induced OPC differentiation in a dose dependent manner; also recorded: induced differentiation of OPCs in a dose dependent manner

## CCN(CC)CC#CCOC(=O)C(O)(c1ccccc1)C1CCCCC1 (stereo not shown) [oxybutynin]
[1]
  induction of OPC differentiation (MBP staining): induced OPC differentiation in a dose dependent manner; also recorded: induced differentiation of OPCs in a dose dependent manner
